From the supplement of paper PMC11699113

System: ED cells (E. derm NBM-6, ATCC CCL-57)
Experiment: cell viability (ATP, CellTiter-Glo) relative to untreated control (fraction of control); higher = less cytotoxic

Cc1cc(C#N)cc(C)c1Oc1nc(Nc2ccc(C#N)cc2)nc(N)c1Br [etravirine]
cell viability
Conditions	0.5 µM	2 µM	5 µM	10 µM	25 µM	50 µM	80 µM	100 µM	200 µM	300 µM
incubation time: 1h	1.03	1.02	0.959	0.693	0.424	0.372	0.346	0.329	0.328	0.322
incubation time: 24h	1.06	1.02	1.04	0.986	0.866	0.817	0.679	0.674	0.413	0.249
incubation time: 72h	1.01	0.978	0.953	0.894	0.829	0.796	0.75	0.723	0.541	0.412
incubation time: 144h	1	0.994	0.97	0.927	0.871	0.835	0.784	0.775	0.626	0.525

CC(C)CN(C[C@@H](OP(=O)(O)O)[C@H](Cc1ccccc1)NC(=O)O[C@H]1CCOC1)S(=O)(=O)c1ccc(N)cc1 [fosamprenavir]
cell viability
Conditions	0.03 µM	0.06 µM	0.125 µM	0.25 µM	0.5 µM	2 µM	5 µM	10 µM	20 µM	32 µM
incubation time: 1h	1.1	1.13	1.11	1.11	1.11	1.1	1.1	1.11	1.1	1.08
incubation time: 24h	1.01	1.01	1.01	1	0.994	1	0.979	0.978	0.978	0.949
incubation time: 72h	1.08	1.08	1.08	1.08	1.08	1.08	1.04	1.03	1	0.953
incubation time: 144h	1.02	1.04	1.04	1.06	1.05	1.05	1.04	1.02	0.993	0.957

Nc1ccn([C@@H]2CS[C@H](CO)O2)c(=O)n1 [lamivudine]
cell viability
Conditions	0.5 µM	2 µM	5 µM	10 µM	20 µM	40 µM	50 µM	75 µM	100 µM	150 µM
incubation time: 1h	1.04	1.02	1.03	1.03	1.02	1.01	1.01	1.02	0.997	0.979
incubation time: 24h	1.02	1.03	1.03	1.03	1.03	1.03	1.02	1.03	1.03	1.04
incubation time: 72h	1.03	1.04	1.05	1.04	1.06	1.05	1.04	1.04	1.04	1.02
incubation time: 144h	1.03	1.03	1.04	1.04	1.04	1.04	1.03	1.04	1.03	1

Cc1ccnc2c1NC(=O)c1cccnc1N2C1CC1 [nevirapine]
cell viability
Conditions	0.5 µM	2 µM	5 µM	10 µM	25 µM	50 µM	80 µM	100 µM	200 µM	300 µM
incubation time: 1h	1.05	1.04	1.05	1.05	1.05	1.04	1.05	1.04	1.05	1.04
incubation time: 24h	1.06	1.06	1.07	1.07	1.08	1.09	1.06	1.08	1.05	1.04
incubation time: 72h	1.04	1.05	1.07	1.07	1.06	1.06	1.03	1.02	0.958	0.924
incubation time: 144h	1	1.02	1.02	1.03	1.02	0.989	0.962	0.961	0.886	0.848

Cc1nnc(C(=O)NC(C)(C)c2nc(C(=O)NCc3ccc(F)cc3)c(O)c(=O)n2C)o1 [raltegravir]
cell viability
Conditions	0.5 µM	2 µM	5 µM	10 µM	25 µM	50 µM	80 µM	100 µM	200 µM	300 µM
incubation time: 1h	1.07	1.07	1.07	1.08	1.07	1.06	1.05	1.07	1.06	1.06
incubation time: 24h	1.02	1.02	1.02	1.03	1.02	1.01	0.983	0.999	0.982	0.963
incubation time: 72h	1.03	1.05	1.04	1.04	1.04	1.05	1.01	1.02	0.992	0.963
incubation time: 144h	0.994	0.999	1.03	1.03	1.04	1.04	1.03	1.02	0.991	0.955
